These results are taken from patent US9708259B2 (Hoffmann-La Roche Inc., priority 2013, dated 2017).

The target in assay [1] is T1, human M1 (Homo sapiens, UniProt P11229).
T1 construct: expressed in transfected cells; host or cells: CHO cells
T1 sequence (P11229 1-460): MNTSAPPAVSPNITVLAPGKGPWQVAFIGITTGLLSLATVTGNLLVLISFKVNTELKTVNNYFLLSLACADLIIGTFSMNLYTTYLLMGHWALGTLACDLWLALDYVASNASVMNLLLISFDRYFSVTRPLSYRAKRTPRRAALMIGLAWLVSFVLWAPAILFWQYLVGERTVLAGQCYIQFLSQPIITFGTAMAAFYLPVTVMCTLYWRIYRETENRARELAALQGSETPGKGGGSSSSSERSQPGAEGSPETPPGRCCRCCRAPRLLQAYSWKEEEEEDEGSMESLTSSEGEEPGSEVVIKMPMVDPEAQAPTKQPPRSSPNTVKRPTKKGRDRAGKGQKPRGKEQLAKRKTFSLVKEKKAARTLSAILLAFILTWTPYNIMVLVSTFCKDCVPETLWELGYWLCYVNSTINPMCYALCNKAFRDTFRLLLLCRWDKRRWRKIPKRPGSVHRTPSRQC
In words: M1 PAM assay (FLIPR intracellular calcium), human M1. In kind it is cell-based. Particulars: CHO human M1 cells, FLIPR Ca2+, with EC20 of acetylcholine; first value of the cell; read-out: hM1 EC50. In short, it runs like this:
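CHO cells expressing M1, Fluo-4AM-loaded, in HEPES/probenecid HBSS pH 7.4, 1% DMSO final. Compounds pre-incubated 2 min for agonist activity versus 30 nM acetylcholine control. For PAM activity, acetylcholine EC20 added after the 2 min pre-incubation, then 2 min more before FLIPR intracellular Ca2+ read.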
Background: Calcium flux is commonly read through the fluorescence of an indicator in the cells.

Assay [2] has as its target T2, ratM1 (Rattus norvegicus, UniProt P08482).
T2 construct: expressed in transfected cells; host or cells: CHO cells (stated generally for the assay, not specifically for rat M1)
T2 sequence (P08482 1-460): T1 sequence (P11229 1-460) with A5V, T254S, P309S, R320K, A337G, I413V
In words: M1 PAM assay (FLIPR intracellular calcium), rat M1. The class given is cell-based. Particulars: rat M1, FLIPR Ca2+; second value of the cell; read-out: ratM1 EC50.

Positions count from the first letter of the chain named.

Regarding `Cn1cc(-c2ccc(Cn3cc(C(=O)NCC4(O)CC4)c4c(F)cccc43)c(F)c2)cn1` [Example 97, 4-fluoro-1-(2-fluoro-4-(1-methyl-1H-pyrazol-4-yl)benzyl)-N-((1-hydroxycyclopropyl)methyl)-1H-indole-3-carboxamide], the EC50 (as a rule, the concentration at which the effect is half-maximal) in assay [1] stood at 465 nM; in assay [2], 1890 nM.
In the case of `CNC(=O)c1ccc(Cn2cc(CC(=O)N[C@H]3CCOC[C@@H]3O)c3c(F)cccc32)cc1` [Example 98, 4-((4-fluoro-3-(2-((3R,4S)-3-hydroxytetrahydro-2H-pyran-4-ylamino)-2-oxoethyl)-1H-indol-1-yl)methyl)-N-methylbenzamide], the figures for the EC50 in assay [1] and in assay [2] were 32 nM and 134 nM, respectively.
For the compound `CNC(=O)c1ccc(Cn2cc(CC(=O)N[C@H]3CCCC[C@@H]3O)c3c(F)cccc32)cc1` [Example 99], the EC50 worked out at 54 nM in assay [1] and 195 nM in assay [2].
Regarding `Cn1cc(-c2ccc(Cn3cc(C(=O)N[C@@H]4CCCC(F)(F)[C@H]4O)c4c(F)cccc43)cc2)cn1` [Example 100, N-((1R,2S)-3,3-difluoro-2-hydroxycyclohexyl)-4-fluoro-1-(4-(1-methyl-1H-pyrazol-4-yl)benzyl)-1H-indole-3-carboxamide], the EC50 in assay [1] turned out to be 4 nM; in assay [2], 15 nM.
Regarding `Cn1cc(-c2ccc(Cn3cc(C(=O)N[C@H]4CCCC(F)(F)[C@@H]4O)c4c(F)cccc43)cc2)cn1` [Example 101, N-((1S,2R)-3,3-difluoro-2-hydroxycyclohexyl)-4-fluoro-1-(4-(1-methyl-1H-pyrazol-4-yl)benzyl)-1H-indole-3-carboxamide], the figures for the EC50 in assay [1] and in assay [2] were 14 nM and 42 nM, respectively.
Regarding `Cn1cc(-c2ccc(Cn3cc(C(=O)N[C@@H]4CCCC(F)(F)[C@H]4O)c4c(F)cccc43)c(F)c2)cn1` [Example 102, N-((1R,2S)-3,3-difluoro-2-hydroxycyclohexyl)-4-fluoro-1-(2-fluoro-4-(1-methyl-1H-pyrazol-4-yl)benzyl)-1H-indole-3-carboxamide], the values for the EC50 in assay [1] and in assay [2] were 29 nM and 88 nM, respectively.
On the same counts, the results for `Cn1cc(-c2ccc(Cn3cc(C(=O)N[C@H]4CCCC(F)(F)[C@@H]4O)c4c(F)cccc43)c(F)c2)cn1` [Example 103, N-((1S,2R)-3,3-difluoro-2-hydroxycyclohexyl)-4-fluoro-1-(2-fluoro-4-(1-methyl-1H-pyrazol-4-yl)benzyl)-1H-indole-3-carboxamide] are 7 nM and 32 nM.
`Cn1cc(-c2ccc(Cn3cc(C(=O)N[C@H]4CCCC[C@@H]4O)c4c(F)ccc(C5CC5)c43)cc2)cn1` [Example 105, 7-cyclopropyl-4-fluoro-N-((1S,2S)-2-hydroxycyclohexyl)-1-(4-(1-methyl-1H-pyrazol-4-yl)benzyl)-1H-indole-3-carboxamide]: the EC50 in assay [1] was 288 nM; in assay [2], 627 nM.
The like results for `Cn1cc(-c2ccc(Cn3cc(C(=O)N[C@H]4CCOC[C@@H]4O)c4c(F)ccc(C5CC5)c43)cc2)cn1` [Example 106, 7-cyclopropyl-4-fluoro-N-((3R,4S)-3-hydroxytetrahydro-2H-pyran-4-yl)-1-(4-(1-methyl-1H-pyrazol-4-yl)benzyl)-1H-indole-3-carboxamide] were, in that order, 189 nM and 187 nM.
On the same counts, the results for `Cn1cc(-c2ccc(Cn3cc(C(=O)N[C@H]4CCOC[C@@H]4O)c4c(F)ccc(C5CC5)c43)c(F)c2)cn1` [Example 107, 7-cyclopropyl-4-fluoro-1-(2-fluoro-4-(1-methyl-1H-pyrazol-4-yl)benzyl)-N-((3R,4S)-3-hydroxytetrahydro-2H-pyran-4-yl)-1H-indole-3-carboxamide] are 482 nM and 767 nM.
As to `CCc1ccc(F)c2c(C(=O)NC3CCOCC3)cn(Cc3ccc(-c4cnn(C)c4)cc3)c12` [Example 108, 7-ethyl-4-fluoro-1-(4-(1-methyl-1H-pyrazol-4-yl)benzyl)-N-(tetrahydro-2H-pyran-4-yl)-1H-indole-3-carboxamide], the results for the concentration giving a half-maximal response (EC50) in assay [1] and in assay [2] were 414 nM and 952 nM, respectively.
With `CCc1ccc(F)c2c(C(=O)N[C@H]3CCOC[C@@H]3O)cn(Cc3ccc(-c4cnn(C)c4)cc3)c12` [Example 109, 7-ethyl-4-fluoro-N-((3R,4S)-3-hydroxytetrahydro-2H-pyran-4-yl)-1-(4-(1-methyl-1H-pyrazol-4-yl)benzyl)-1H-indole-3-carboxamide], the concentration for a half-maximal effect (EC50) in assay [1] worked out at 61 nM; in assay [2], 79 nM.
Take `CNC(=O)c1ccc(Cn2cc(C(=O)NC)c3c(F)cccc32)cc1` [Example 110, 4-fluoro-N-methyl-1-[[4-(methylcarbamoyl)phenyl]methyl]indole-3-carboxamide]: the 50% effective concentration (EC50) in assay [1] turned out to be 141 nM; in assay [2] it was 482 nM.
The like results for `CNC(=O)c1ccc(Cn2cc(C(=O)NC3CC3)c3c(F)cccc32)cc1` [Example 111, N-cyclopropyl-4-fluoro-1-[[4-(methylcarbamoyl)phenyl]methyl]indol-3-carboxamide] were, in that order, 127 nM and 408 nM.
As for `CNC(=O)c1ccc(Cn2cc(C(=O)NC3CCC3)c3c(F)cccc32)cc1` [Example 112, N-cyclobutyl-4-fluoro-1-[[4-(methylcarbamoyl)phenyl]methyl]indole-3-carboxamide], the EC50 in assay [1] amounted to 72 nM; in assay [2] it was 168 nM.
Consider `CNC(=O)c1ccc(Cn2cc(C(=O)NC3CCCC3)c3c(F)cccc32)cc1` [Example 113, N-cyclopentyl-4-fluoro-1-[[4-(methylcarbamoyl)phenyl]methyl]indole-3-carboxamide], for which the results for the EC50 in assay [1] and in assay [2] were 34 nM and 77 nM, respectively.
As to `CNC(=O)c1ccc(Cn2cc(C(=O)NC3CCCCC3)c3c(F)cccc32)cc1` [Example 114, N-cyclohexyl-4-fluoro-1-[[4-(methylcarbamoyl)phenyl]methyl]indole-3-carboxamide], the figures for the concentration for a half-maximal effect (EC50) in assay [1] and in assay [2] were 17 nM and 15 nM, respectively.
For the compound `CNC(=O)c1ccc(Cn2cc(C(=O)NC3CCCCCC3)c3c(F)cccc32)cc1` [Example 115, N-cycloheptyl-4-fluoro-1-[[4-(methylcarbamoyl)phenyl]methy]indole-3-carboxamide], the results for the EC50 in assay [1] and in assay [2] were 50 nM and 28 nM, respectively.
Regarding `CNC(=O)c1ccc(Cn2cc(C(=O)NCC3CC3)c3c(F)cccc32)cc1` [Example 116, N-(cyclopropylmethyl)-4-fluoro-1-[[4-(methylcarbamoyl)phenyl]methyl]indole-3-carboxamide], the figures for the half-maximal effective concentration (EC50) in assay [1] and in assay [2] were 74 nM and 320 nM, respectively.
On to `CNC(=O)c1ccc(Cn2cc(C(=O)NC3CCC(F)(F)CC3)c3c(F)cccc32)cc1` [Example 117, N-(4,4-difluorocyclohexyl)-4-fluoro-1-[[4-(methylcarbamoyl)phenyl]methyl]indole-3-carboxamide], for which the figures for the EC50 in assay [1] and in assay [2] were 14 nM and 29 nM, respectively.
The like results for `CNC(=O)c1ccc(Cn2cc(C(=O)NC3CCCC(F)(F)C3)c3c(F)cccc32)cc1` (centres unmarked) [Example 118, N-(3,3-difluorocyclohexyl)-4-fluoro-1-[[4-(methylcarbamoyl)phenyl]methyl]indole-3-carboxamide] were, in that order, 9 nM and 29 nM.
The like results for `CNC(=O)c1ccc(Cn2cc(C(=O)NC3CCOC(C)(C)C3)c3c(F)cccc32)cc1` (centres unmarked) [Example 119, N-(2,2-dimethyloxan-4-yl)-4-fluoro-1-[[4-(methylcarbamoyl)phenyl]methyl]indole-3-carboxamide] were, in that order, 6 nM and 12 nM.
For `CNC(=O)c1ccc(Cn2cc(C(=O)NC3CCCCC3(F)F)c3c(F)cccc32)cc1` (centres unmarked) [Example 120, N-(2,2-difluorocyclohexyl)-4-fluoro-1-[[4-(methylcarbamoyl)phenyl]methyl]indole-3-carboxamide], the EC50 in assay [1] stood at 15 nM; in assay [2], 32 nM.
The like results for `CNC(=O)c1ccc(Cn2cc(C(=O)NC3CCCCC3F)c3c(F)cccc32)cc1` (centres unmarked) [Example 121, 4-fluoro-N-(2-fluorocyclohexyl)-1-[[4-(methylcarbamoyl)phenyl]methyl]indole-3-carboxamide] were, in that order, 6 nM and 17 nM.
For the compound `CNC(=O)c1ccc(Cn2cc(C(=O)NC3CCCOC3)c3c(F)cccc32)cc1` (centres unmarked) [Example 122, 4-fluoro-1-[[4-(methylcarbamoyl)phenyl]methyl]-N-(oxan-3-yl)indole-3-carboxamide], the EC50 was 62 nM in assay [1] and 154 nM in assay [2].
